Eight molecules from PubChem BioAssay (NCI) can be followed below.

Among the test systems are NCI-H23 lung; RPMI-8226 leukemia; HL-60(TB) leukemia; OVCAR-8 ovarian; KM12 colon; MDA-N; HT29 colon; ACHN renal; HOP-62 NSCLC; CCRF-CEM leukemia; UO-31 renal; EKVX NSCLC; SNB-75 CNS; SF-295 CNS; M14 melanoma; SW-620 colon; DU-145 prostate; SF-268 CNS.
Test in all cases: DTP human tumour cell line panel, 48 h

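Cells were grown in 96-well plates and exposed to each compound for 48 hours at five concentrations; endpoints were interpolated linearly between bracketing concentrations, or set to the highest concentration if not reached. Definition used: TGI = concentration required for complete inhibition of growth.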 Bounds are passed on as bounds.

As a reminder, the TGI is the concentration giving total growth inhibition. Low values mean greater sensitivity of the cells, high ones lower sensitivity of the cells. Consider `COC(=O)c1ccccc1C1CN=NC12Cc1cc(C)ccc1C2=O` (centres undefined), for which the total growth inhibition concentration (TGI) with NCI-H23 lung, in the experiment on RPMI-8226 leukemia, in the experiment on HL-60(TB) leukemia, in the experiment with OVCAR-8 ovarian, in the experiment on KM12 colon and with MDA-N was greater than 100 µM in each case. In addition, the TGI in the experiment on HT29 colon, with ACHN renal, in the experiment with HOP-62 NSCLC, in the experiment with CCRF-CEM leukemia, in the experiment on UO-31 renal and in the experiment with EKVX NSCLC was greater than 100 µM each time. In addition, the TGI in the experiment on SNB-75 CNS, in the experiment with SF-295 CNS, in the experiment with M14 melanoma, in the experiment with SW-620 colon, in the experiment on DU-145 prostate and in the experiment on SF-268 CNS was greater than 100 µM in each case.
Regarding `CC(C)/C(Cl)=N\OC(=O)Nc1cccc(Cl)c1`, the TGI with NCI-H23 lung came to 34 µM; in the experiment with RPMI-8226 leukemia, 25 µM; in the experiment on HL-60(TB) leukemia, 3.3 µM; in the experiment on OVCAR-8 ovarian, 29.4 µM; with KM12 colon it was 31.6 µM; in the experiment on MDA-N it was 28.6 µM. Besides, the concentration for total growth inhibition (TGI) is 35.1 µM with HT29 colon; 18.4 µM in the experiment with ACHN renal; greater than 86.1 µM with HOP-62 NSCLC; 5.05 µM in the experiment with CCRF-CEM leukemia; 33.3 µM in the experiment with UO-31 renal; 31.7 µM with EKVX NSCLC. Also, the TGI is 33.2 µM in the experiment on SNB-75 CNS; greater than 58.9 µM with SF-295 CNS; 11 µM with M14 melanoma; 9.83 µM with SW-620 colon; 51.2 µM in the experiment on DU-145 prostate; 47.2 µM in the experiment on SF-268 CNS.
`CCC(=O)Nc1ccc(N2C(=O)C(Cl)C2c2ccc(SC)cc2)cc1` (centres undefined): the TGI in the experiment on NCI-H23 lung, in the experiment on RPMI-8226 leukemia, with HL-60(TB) leukemia, in the experiment with OVCAR-8 ovarian, in the experiment on KM12 colon and with MDA-N was greater than 100 µM throughout. Also, the TGI in the experiment with HT29 colon, in the experiment on ACHN renal, with HOP-62 NSCLC, in the experiment with CCRF-CEM leukemia, in the experiment on UO-31 renal and in the experiment with EKVX NSCLC was greater than 100 µM in each case. In addition, the TGI in the experiment on SNB-75 CNS, in the experiment on SF-295 CNS, with M14 melanoma, with SW-620 colon, with DU-145 prostate and with SF-268 CNS was greater than 100 µM in each case.
Turning to `CC(C)(C)c1cc(O)ccc1O`, the TGI was greater than 100 µM in the experiment with NCI-H23 lung; greater than 93.7 µM in the experiment on RPMI-8226 leukemia; 26.7 µM in the experiment on HL-60(TB) leukemia; greater than 84.2 µM in the experiment on OVCAR-8 ovarian; greater than 100 µM in the experiment with KM12 colon; greater than 100 µM with MDA-N. For the same molecule, the total growth inhibition concentration (TGI) in the experiment with HT29 colon is greater than 100 µM; in the experiment with ACHN renal, greater than 100 µM; in the experiment with HOP-62 NSCLC it was greater than 100 µM; in the experiment with CCRF-CEM leukemia, 33.2 µM; in the experiment with UO-31 renal, greater than 72.8 µM; with EKVX NSCLC, greater than 100 µM. The TGI was 25.2 µM in the experiment with SNB-75 CNS; greater than 100 µM with SF-295 CNS; greater than 100 µM in the experiment with M14 melanoma; greater than 100 µM in the experiment on SW-620 colon; 23.4 µM with DU-145 prostate; greater than 51.1 µM with SF-268 CNS.
In the case of `Cc1nc2c(=O)n(C)ncc2[nH]1`, the TGI with NCI-H23 lung, with RPMI-8226 leukemia, in the experiment on HL-60(TB) leukemia, in the experiment on OVCAR-8 ovarian, with KM12 colon and in the experiment on MDA-N was greater than 100 µM throughout. Besides, the TGI with HT29 colon, with ACHN renal, in the experiment with HOP-62 NSCLC, in the experiment on CCRF-CEM leukemia, in the experiment with UO-31 renal and in the experiment with EKVX NSCLC was greater than 100 µM throughout. The TGI with SNB-75 CNS, with SF-295 CNS, in the experiment on M14 melanoma, in the experiment with SW-620 colon, with DU-145 prostate and in the experiment on SF-268 CNS was greater than 100 µM throughout.
In the case of `Cc1ccnc(NC(NC(=O)c2ccccc2)(C(F)(F)F)C(F)(F)F)c1`, the TGI in the experiment on NCI-H23 lung, with RPMI-8226 leukemia, with HL-60(TB) leukemia, with OVCAR-8 ovarian, in the experiment with KM12 colon and in the experiment on MDA-N was greater than 100 µM throughout. The TGI with HT29 colon, in the experiment with ACHN renal, with HOP-62 NSCLC, in the experiment with CCRF-CEM leukemia, in the experiment on UO-31 renal and with EKVX NSCLC was greater than 100 µM in each case. The TGI in the experiment on SNB-75 CNS, with SF-295 CNS, in the experiment on M14 melanoma, in the experiment with SW-620 colon, in the experiment with DU-145 prostate and with SF-268 CNS was greater than 100 µM throughout.
For `N[C@H]1CCCC[C@@H]1N1C(=O)c2ccccc2C1(O)c1ccc(Cl)cc1` (some centres undefined), the TGI in the experiment on NCI-H23 lung is 28.6 µM; in the experiment with RPMI-8226 leukemia, 13.6 µM; in the experiment on HL-60(TB) leukemia, 20 µM; with OVCAR-8 ovarian it was 32.4 µM; in the experiment with KM12 colon it was 9.75 µM; in the experiment on MDA-N, 25 µM. In addition, the TGI is 15.6 µM with HT29 colon; 27 µM in the experiment on ACHN renal; 29.6 µM in the experiment with HOP-62 NSCLC; 16.7 µM in the experiment with CCRF-CEM leukemia; 24.2 µM with UO-31 renal; 30.1 µM in the experiment on EKVX NSCLC. Further, the TGI in the experiment on SNB-75 CNS is 7.98 µM; in the experiment on SF-295 CNS, 30.9 µM; in the experiment with M14 melanoma it was 23.6 µM; in the experiment with SW-620 colon, 24.2 µM; in the experiment with DU-145 prostate, 25.9 µM; in the experiment on SF-268 CNS, 27.5 µM.
In the case of `C=C(Br)CNC(=O)CCC(=O)NCC(=C)Br`, the TGI with NCI-H23 lung, with RPMI-8226 leukemia, with HL-60(TB) leukemia, in the experiment with OVCAR-8 ovarian, with KM12 colon and in the experiment on MDA-N was greater than 100 µM each time. For the same molecule, the TGI in the experiment on HT29 colon, with ACHN renal, in the experiment with HOP-62 NSCLC, with CCRF-CEM leukemia, with UO-31 renal and with EKVX NSCLC was greater than 100 µM in each case. The TGI in the experiment on SNB-75 CNS, in the experiment on SF-295 CNS, in the experiment on M14 melanoma, in the experiment with SW-620 colon, in the experiment with DU-145 prostate and in the experiment on SF-268 CNS was greater than 100 µM each time.
